Source: ChEMBL document CHEMBL1149774, “Synthesis of N-(5,7-diamino-3-phenyl-quinoxalin-2-yl)-3,4,5-substituted anilines and N-[4[(5,7-diamino-3-phenylquinoxalin-2-yl)amino]benzoyl]-l-glutamic acid diethyl ester: evaluation of in vitro anti-cancer and anti-folate activities” (Eur J Med Chem, 2008)

Legend:
HOP-92 = experiment: Growth inhibition of human HOP92 cells after 48 hrs by SRB staining method; assay type: functional; settings: HOP-92, 48 h
NCI-H460 = experiment: Growth inhibition of human NCI-H460 cells after 48 hrs by SRB staining method; assay type: functional; settings: NCI-H460, 48 h
COLO 205 = experiment: Growth inhibition of human COLO205 cells after 48 hrs by SRB staining method; assay type: functional; settings: COLO 205, 48 h
HCC 2998 = experiment: Growth inhibition of human HCC2998 cells after 48 hrs by SRB staining method; assay type: functional; settings: HCC 2998, 48 h
HCT-15 = experiment: Growth inhibition of human HCT15 cells after 48 hrs by SRB staining method; assay type: functional; settings: HCT-15, 48 h
HT-29 = experiment: Growth inhibition of human HT29 cells after 48 hrs by SRB staining method; assay type: functional; settings: HT-29, 48 h
SF-295 = experiment: Growth inhibition of human SF295 cells after 48 hrs by SRB staining method; assay type: functional; settings: SF-295, 48 h
SNB-75 = experiment: Growth inhibition of human SNB75 cells after 48 hrs by SRB staining method; assay type: functional; settings: SNB-75, 48 h
U-251 = experiment: Growth inhibition of human U251 cells after 48 hrs by SRB staining method; assay type: functional; settings: U-251, 48 h
LOX IMVI = experiment: Growth inhibition of human LOX IMVI cells after 48 hrs by SRB staining method; assay type: functional
SK-MEL-2 = experiment: Growth inhibition of human SK-MEL-2 cells after 48 hrs by SRB staining method; assay type: functional; settings: SK-MEL-2, 48 h
UACC-257 = experiment: Growth inhibition of human UACC257 cells after 48 hrs by SRB staining method; assay type: functional; settings: UACC-257, 48 h
IGROV-1 = experiment: Growth inhibition of human IGROV1 cells after 48 hrs by SRB staining method; assay type: functional; settings: IGROV-1, 48 h
SK-OV-3 = experiment: Growth inhibition of human SKOV3 cells after 48 hrs by SRB staining method; assay type: functional; settings: SK-OV-3, 48 h
786-0 = experiment: Growth inhibition of human 786-0 cells after 48 hrs by SRB staining method; assay type: functional; settings: 786-0, 48 h
DU-145 = experiment: Growth inhibition of human DU145 cells after 48 hrs by SRB staining method; assay type: functional; settings: DU-145, 48 h
[1] = Growth inhibition of human HS 578T cells after 48 hrs by SRB staining method; assay type: functional
BT-549 = experiment: Growth inhibition of human BT549 cells after 48 hrs by SRB staining method; assay type: functional; settings: BT-549, 48 h
T47D = experiment: Growth inhibition of human T47D cells after 48 hrs by SRB staining method; assay type: functional
Dihydrofolate reductase = target: T1, Dihydrofolate reductase (Homo sapiens, UniProt P00374); experiment: Inhibition of human dihydrofolate reductase
T1 sequence (P00374 whole entry): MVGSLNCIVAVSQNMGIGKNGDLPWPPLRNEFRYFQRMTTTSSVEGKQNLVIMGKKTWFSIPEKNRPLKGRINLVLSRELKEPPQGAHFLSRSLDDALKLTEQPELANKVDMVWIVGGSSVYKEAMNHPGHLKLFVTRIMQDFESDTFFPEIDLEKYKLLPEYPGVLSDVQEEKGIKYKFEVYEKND

MDA-N = experiment: Growth inhibition of human MDA-N cells after 48 hrs by SRB staining method; assay type: functional
SW-620 = experiment: Growth inhibition of human SW620 cells after 48 hrs by SRB staining method; assay type: functional; settings: SW-620, 48 h
CCRF-CEM = experiment: Growth inhibition of human CCRF-CEM cells after 48 hrs by SRB staining method; assay type: functional
HL-60 = experiment: Growth inhibition of human HL60 cells after 48 hrs by SRB staining method; assay type: functional; settings: HL-60, 48 h
K562 = experiment: Growth inhibition of human K562 cells after 48 hrs by SRB staining method; assay type: functional; settings: K562, 48 h
SR = experiment: Growth inhibition of human SR cells after 48 hrs by SRB staining method; assay type: functional
EKVX = experiment: Growth inhibition of human EKVX cells after 48 hrs by SRB staining method; assay type: functional
[2] = read-out: pLC50 (the source's name) (converted)

## COc1ccc(Nc2nc3cc(N)cc(N)c3nc2-c2ccccc2)cc1
HOP-92
  GI50: 20 µM
  LC50: > 100 µM
HOP-92; read-out: pTGI (converted)
  TGI: 52.5 µM
NCI-H460
  GI50: 26.9 µM
  LC50 (concentration killing 50% of cells): > 100 µM
NCI-H460; read-out: pTGI (converted)
  TGI: 89.1 µM
COLO 205
  GI50: 15.8 µM
  LC50: 53.7 µM
COLO 205; read-out: pTGI (converted)
  TGI: 29.5 µM
HCC 2998
  GI50: 28.2 µM
  LC50: > 100 µM
HCC 2998; read-out: pTGI (converted)
  TGI: > 100 µM
HCT-15
  GI50: 15.1 µM
  LC50: > 100 µM
HCT-15; read-out: pTGI (converted)
  TGI: 44.7 µM
HT-29
  GI50: 24 µM
  LC50: 89.1 µM
HT-29; read-out: pTGI (converted)
  TGI: 42.7 µM
SF-295
  GI50: 31.6 µM
  LC50: > 100 µM
SF-295; read-out: pTGI (converted)
  TGI: > 100 µM
SNB-75
  GI50: 14.5 µM
  LC50: > 100 µM
SNB-75; read-out: pTGI (converted)
  TGI: 42.7 µM
U-251
  GI50: 16.2 µM
  LC50 (50% lethal concentration): 55 µM
U-251; read-out: pTGI (converted)
  TGI: 29.5 µM
LOX IMVI
  GI50: 16.2 µM
  LC50: 55 µM
LOX IMVI; read-out: pTGI (converted)
  TGI: 29.5 µM
SK-MEL-2
  GI50: 15.5 µM
  LC50: 63.1 µM
SK-MEL-2; read-out: pTGI (converted)
  TGI: 31.6 µM
UACC-257
  GI50: 15.1 µM
  LC50: 52.5 µM
UACC-257; read-out: pTGI (converted)
  TGI: 27.5 µM
IGROV-1
  GI50: 15.5 µM
  LC50: 83.2 µM
IGROV-1; read-out: pTGI (converted)
  TGI: 35.5 µM
SK-OV-3
  GI50: 33.1 µM
SK-OV-3; [2]
  CC50: > 100 µM
SK-OV-3; read-out: pTGI (converted)
  TGI: 97.7 µM
786-0
  GI50: 15.8 µM
786-0; [2]
  CC50: 60.3 µM
786-0; read-out: pTGI (converted)
  TGI: 30.9 µM
DU-145
  GI50: 38.9 µM
DU-145; [2]
  CC50: > 100 µM
DU-145; read-out: pTGI (converted)
  TGI: > 100 µM
[1]
  GI50: 14.5 µM
[1]; [2]
  CC50: > 100 µM
[1]; read-out: pTGI (converted)
  TGI: 46.8 µM
BT-549
  GI50: 13.5 µM
BT-549; [2]
  CC50: 75.9 µM
BT-549; read-out: pTGI (converted)
  TGI: 31.6 µM
T47D
  GI50: 17.8 µM
T47D; [2]
  CC50: > 100 µM
T47D; read-out: pTGI (converted)
  TGI: 53.7 µM
Dihydrofolate reductase
  Ki: 1.8 µM
MDA-N
  GI50: 21.4 µM
MDA-N; [2]
  CC50: 60.3 µM
MDA-N; read-out: pTGI (converted)
  TGI: 36.3 µM
SW-620
  GI50: 22.4 µM
SW-620; [2]
  CC50: 60.3 µM
SW-620; read-out: pTGI (converted)
  TGI: 37.2 µM
CCRF-CEM
  GI50: 12 µM
CCRF-CEM; [2]
  CC50: > 100 µM
CCRF-CEM; read-out: pTGI (converted)
  TGI: > 100 µM
HL-60
  GI50: 34.7 µM
HL-60; [2]
  CC50: > 100 µM
HL-60; read-out: pTGI (converted)
  TGI: > 100 µM
K562
  GI50: 29.5 µM
K562; [2]
  CC50: > 100 µM
K562; read-out: pTGI (converted)
  TGI: > 100 µM
SR
  GI50: 19.1 µM
SR; [2]
  CC50: > 100 µM
SR; read-out: pTGI (converted)
  TGI: > 100 µM
EKVX
  GI50: 25.7 µM
EKVX; [2]
  CC50: > 100 µM
EKVX; read-out: pTGI (converted)
  TGI: > 100 µM
